Assay results published in patent publication US7019000B1, “Method of treating a disease condition caused or exacerbated by an HPV” (Institute of Molecular & Cell Biology, priority 1998, dated 2006).

Columns and labels:
[1] = molecular target: T1, binding of E6 with E6AP and E6BP (Human papillomavirus type 16, UniProt P03126); design: species or system HPV-16; conditions: for BIACORE (E6BP/E6AP): 400 μM compound, 2 hrs at room temperature, GST-E6 7 μM in 10 mM GSH; for complex formation of GST-E6 with GST-E6AP/GST-E6BP, controls: 5 mM EDTA or 0.6% (170 mM) H2O2, 2 hrs at room temperature
T1 construct: The full length HPV16 E6 gene was amplified via polymerase chain reaction and cloned in the vector pGeX4T2; made in house; host or cells: E. coli strain AB1899
Excerpt: BIACORE allows real time analysis of bimolecular interactions without the need for isotopic or enzymatic labelling. BIACORE technology is based on the optical surface plasmon resonance (SPR), a technique that allows for detecting small changes in the refractive index on the surface of a thin gold film coated with a dextran matrix. Typically, one of the binding partners (termed the ligand) is covalently linked to the dextran matrix, while the other partner (termed the analyte) is introduced in a flow passing over the surface. The change in refractive index resulting from the interaction of the molecules is expressed in resonance units (RU): a SPR response of 1000 RU corresponds to a change of the surface concentration of the analyte of 1 ng protein/mm^2. GST-E6AP and GST-E6BP were used as ligands and GSTE6 was used as the analyte. […] Further controls included using the dextran matrix alone or GST as the ligand.
Binding of GST-E6 to GST-E6BP, GST-E6AP and GST was monitored by surface plasmon resonance (SPR) on a BIACORE 2000 machine (Biacore AB, Uppsala, Sweden). […] Typically 6000–10000 RU of GST, E6BP and E6AP were immobilized on three difference flowcells. Aliquots of purified HPV-16 GST-E6 (7 μM in 10 mM GSH, 50 mM Tris/PBS buffer, pH 8.2) were incubated with either 400 μM compound, or 5 mM EDTA, or 0.6% (170 mM) H2O2 for 2 hrs at room temperature. Then 10 μl of sample was injected at 1 μl/min over the three immobilized ligands using the sequential flow mode. The interactions between GST-E6 and ligands were monitored by the change of resonance signal in arbitrary units (RU).

[2] = molecular target: T2, HPV-16-E6 (recombinant GST-E6 protein) (Human papillomavirus type 16, UniProt P03126); assay: biochemical; assay type: biochemical; conditions: read-out: TSQ % (% values of Zinc release)
T2 construct: The full length HPV16 E6 gene was amplified via polymerase chain reaction and cloned in the vector pGeX4T2; made in house; host or cells: E. coli strain AB1899
Excerpt: Where the chelated metal is zinc, zinc release can be measured as an increase in the fluorescence of the zinc-selective fluorophore TSQ (N-(6-methoxy-8-quinolyl)-p-toluenesulfonamide) (18) in the presence of the protein and the active compound (TSQ assay).
In such an assay, the increase in fluorescence measured can be described as a percentage of the increase in fluorescence observed for a positive control compound which provides 100% zinc release. A suitable positive control compound is H2O2. Preferred compounds which may be useful in the present invention are those which release at least 30% of the chelated zinc as measured by the TSQ assay. Particularly preferred compounds for use in the present invention are those which release at least 40% of the chelated zinc, more preferably at least 50%.
In earlier studies, reduced glutathione (GSH) was required to elute recombinant glutathione sulfhydryl transferase E6 (recombinant (GST-E6)) protein during the purification process. However, the reducing activity of the GSH sulfhydryl groups protected GST-E6 protein from the chemical attack by agents, such as the disulphide based organic compounds of Formula (I) and (II). […] Individual assays were done in the presence of 9 μg GST-E6 protein, corresponding to a concentration of 1 μM GST-E6 protein and 2 μM bound zinc, assuming the presence of two Zn ions per protein.
Release of zinc from HPV-16-E6 was monitored by the change in fluorescence of the zinc-selective fluorophore TSQ (N-6-methoxy-8-quinolyl)-p-toluenesulfonamide), (Molecular Probes, Eugene, Oreg.) by modification of published procedures (25, 26, 27). In a total reaction volume of 200 μl, 9 μg (1 μM) recombinant GST-E6 protein (corresponding to a concentration of 1 μM), bound to glutathione-sepharose beads, were incubated with 10 μM of each compound or 0.6% (170 mM) H2O2 in TSQ-assay buffer (10 mM sodium phosphate buffer pH7.0, 10% glycerol) for 2 hours at room temperature (200 μl total volume in 96-well plates). Immediately after addition of 100 μM TSQ, the increase in fluorescence was measured on a SLT Fluostar (355 nm excitation filter and 460 nm emission filter, Tecan, Salzburg).
Values given are % values of Zinc release. The relative fluorescence units (RFU) were normalized to the amount of zinc released by H2O2 (regarded as 100%). The concentration of compound used was 10 μM for C27–C35, 13 μM for C37–C83, H2O2 was used at 0.3% for C27–C35 and 0.2% for C37–C83.

[3] = test system: HPV containing cell lines as HeLa, SiHa and Caski, compared to HPV-negative cell lines MCF7, HEPG2, (HaCat, HT3, 444); assay: Cell viability (WST1 assay), panel of HPV-positive and HPV-negative cell lines; assay type: cell-based, human; conditions: for WST1: 50 μM in cell culture; for WST1-spec: 50 μM, HPV containing vs HPV-negative cell lines
Procedure: Zinc finger proteins are required for maintenance of cell viability. Preferably, the compounds for use in the present invention are specific in their ability to affect the viability of MPV containing cells, with little or no cytotoxic effects on the cellular functioning of healthy non-MPV containing cells. The viability of MPV-infected cells (and non infected cells) in the presence of compounds of Formulae (I) or (II) can be measured by incubating with the tetrazolium salt WST1 (Roche Molecular Biochemicals, Manneheim Germany) and measuring the absorption readings thereof (WST1 assay).
All cell lines were obtained from the American Type Culture Collection (Manassas, Va.) unless otherwise noted. SiHa (human cervical epithelial tumor line, HPV16-positive), CaSki (human cervical epithelial tumor line, HPV16-positive), HaCat (immortalized human skin epithelial cell line, HPV-negative), HeLa (human cervical epithelial tumor line, HPV18-positive), 444 (hybrid of HeLa and fibroblast, HPV18-positive) obtained from Eric Stanbridge (Universitv of California, Irvine), MCF7 (human mammary epithelial tumor cell line, HPV-negative), HT3 (human cervical epithelial tumor cell line, HPV-negative) was obtained from the German Cancer Research Institute/DKFZ-Heidelberg, and HepG2, (human liver epithelial tumor cell line, HPV-negative), were grown in Dulbecco's modified Eagle medium (DMEM) supplemented with 10% fetal calf serum, 100 U penicillin and 1000 U streptomycin. Cells were allowed to attach to the surface of microwell dishes overnight and subsequently, incubated with medium containing the zinc ejecting compounds at the concentrations (10–100 μM). Viability of the cells was scored by measuring the absorption of the tetrazolium salt WST1 (Roche Molecular Biochemicals, Mannheim, Germany) in an Elisa-plate reader (Tecan, Salzburg, Austria) at a wavelength of 450 nm and a reference wavelength of 630 nm.
A total of 10 000 cells per well were plated on 24 well plates, after attachment overnight, they were treated 3 times in 3 days with C16 at 10 μM and 50 μM. The activity of C16 was also compared with that of C4 (azodicarbonamide) which causes ejection of zinc from HIV-1 NCp7 and is currently used in clinical trials for the treatment of AIDS.

T1 sequence (P03126 whole entry): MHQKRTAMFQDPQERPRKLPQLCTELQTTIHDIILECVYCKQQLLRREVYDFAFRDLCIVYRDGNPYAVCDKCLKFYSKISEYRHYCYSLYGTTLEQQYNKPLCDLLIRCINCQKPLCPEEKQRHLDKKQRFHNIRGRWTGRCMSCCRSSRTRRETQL
T2 sequence (P03126 whole entry): as above

SMILES: CN1CCN(SSN2CCN(C)CC2)CC1 [Compound C39]
- BIACORE (E6BP/E6AP) [1]: + (compound interferes in binding of E6 with E6AP and E6BP, binding is less than 50% of the corresponding E6-DMSO value.)
- activation at 13 µM [2]: 45%
- WST1 [3]: +
- WST1-spec [3]: +

SMILES: O=[N+]([O-])c1ccc(N2CCN(SSN3CCN(c4ccc([N+](=O)[O-])cc4)CC3)CC2)cc1 [Compound C69]
- BIACORE (E6BP/E6AP) [1]: + (compound interferes in binding of E6 with E6AP and E6BP, binding is less than 50% of the corresponding E6-DMSO value.)
- activation at 13 µM [2]: 0%

SMILES: C1CCN(SSN2CCCC2)C1 [Compound C42]
- BIACORE (E6BP/E6AP) [1]: + (compound interferes in binding of E6 with E6AP and E6BP, binding is less than 50% of the corresponding E6-DMSO value.)
- activation at 13 µM [2]: 50.5%
- WST1 [3]: +

SMILES: c1ccc(N2CCN(SSN3CCN(c4ccccn4)CC3)CC2)nc1 [Compound C55]
- BIACORE (E6BP/E6AP) [1]: + (compound interferes in binding of E6 with E6AP and E6BP, binding is less than 50% of the corresponding E6-DMSO value.)
- activation at 13 µM [2]: 50.6%
- WST1 [3]: +
- WST1-spec [3]: +

SMILES: C1CCN(SSN2CCCCC2)CC1 [Compound C48]
- BIACORE (E6BP/E6AP) [1]: + (compound interferes in binding of E6 with E6AP and E6BP, binding is less than 50% of the corresponding E6-DMSO value.)
- activation at 13 µM [2]: 54.3%
- WST1 [3]: +
- WST1-spec [3]: +

SMILES: COc1ccc(N2CCN(SSN3CCN(c4ccc(OC)cc4)CC3)CC2)cc1 [Compound C71]
- activation at 13 µM [2]: 0%
- WST1 [3]: +
- WST1-spec [3]: +

SMILES: S=C(SSC(=S)N1CCOCC1)N1CCOCC1 [Compound C32]
- BIACORE (E6BP/E6AP) [1]: + (compound interferes in binding of E6 with E6AP and E6BP, binding is less than 50% of the corresponding E6-DMSO value.)
- activation at 10 µM [2]: 80.9%

SMILES: NC(=O)N=NC(N)=O [Compound C4, azodicarbonamide, reference compound]
- growth inhibition ([3]; any of these six cell lines (FIG. 3)): did not cause growth inhibition

SMILES: CN1CCCN(C(=S)SSC(=S)N2CCCN(C)CC2)CC1 [Compound C35]
- activation at 10 µM [2]: 106%
- WST1 [3]: +

SMILES: CC1CN(SSN2CC(C)OC(C)C2)CC(C)O1 (centres unmarked) [Compound C37]
- BIACORE (E6BP/E6AP) [1]: + (compound interferes in binding of E6 with E6AP and E6BP, binding is less than 50% of the corresponding E6-DMSO value.)
- activation at 13 µM [2]: 40.3%
- WST1 [3]: +
- WST1-spec [3]: +

SMILES: C1CN(SSN2CCSCC2)CCS1 [Compound C38]
- BIACORE (E6BP/E6AP) [1]: + (compound interferes in binding of E6 with E6AP and E6BP, binding is less than 50% of the corresponding E6-DMSO value.)
- activation at 13 µM [2]: 41.8%
- WST1 [3]: +
- WST1-spec [3]: +

SMILES: CCOC(=O)N1CCN(SSN2CCN(C(=O)OCC)CC2)CC1 [Compound C41]
- BIACORE (E6BP/E6AP) [1]: + (compound interferes in binding of E6 with E6AP and E6BP, binding is less than 50% of the corresponding E6-DMSO value.)
- activation at 13 µM [2]: 36.8%
- WST1 [3]: +
- WST1-spec [3]: +

SMILES: CCOC(=O)CN(Cc1ccccc1)SSN(CC(=O)OCC)Cc1ccccc1 [Compound C83]
- BIACORE (E6BP/E6AP) [1]: + (compound interferes in binding of E6 with E6AP and E6BP, binding is less than 50% of the corresponding E6-DMSO value.)
- activation at 13 µM [2]: 22%
- WST1 [3]: +

SMILES: O=CN(SSN(C=O)C1CCCCC1)C1CCCCC1 [Compound R26]
- BIACORE (E6BP/E6AP) [1]: + (compound interferes in binding of E6 with E6AP and E6BP, binding is less than 50% of the corresponding E6-DMSO value.)
- activation at 10 µM [2]: 54.9%
- WST1 [3]: +

SMILES: O=C(O)CN(CCN(CC(=O)O)CC(=O)O)CC(=O)O [EDTA, reference compound]
- complex formation of GST-E6 with GST-E6AP/GST-E6BP, controls [1]: completely eliminated complex formation

SMILES: CC1(C)COCN1SSN1COCC1(C)C [Compound C82]
- BIACORE (E6BP/E6AP) [1]: + (compound interferes in binding of E6 with E6AP and E6BP, binding is less than 50% of the corresponding E6-DMSO value.)
- activation at 13 µM [2]: 28.4%
- WST1 [3]: +

SMILES: OO [Compound H2O2, H2O2, reference compound]
- complex formation of GST-E6 with GST-E6AP/GST-E6BP, controls [1]: completely eliminated complex formation

SMILES: CC1CN1SSN1CC1C (centres unmarked) [Compound R25]
- BIACORE (E6BP/E6AP) [1]: + (compound interferes in binding of E6 with E6AP and E6BP, binding is less than 50% of the corresponding E6-DMSO value.)
- activation at 10 µM [2]: 30.9%

SMILES: C1CN1SSN1CC1 [Compound R24]
- BIACORE (E6BP/E6AP) [1]: + (compound interferes in binding of E6 with E6AP and E6BP, binding is less than 50% of the corresponding E6-DMSO value.)
- activation at 10 µM [2]: 71%
- WST1 [3]: +

SMILES: CCN(CC)SSN(CC)CC [Compound C49]
- BIACORE (E6BP/E6AP) [1]: + (compound interferes in binding of E6 with E6AP and E6BP, binding is less than 50% of the corresponding E6-DMSO value.)
- activation at 13 µM [2]: 57%
- WST1 [3]: +

SMILES: O=C1c2ccccc2C(=O)N1SSN1C(=O)c2ccccc2C1=O [Compound C27]
- BIACORE (E6BP/E6AP) [1]: + (compound interferes in binding of E6 with E6AP and E6BP, binding is less than 50% of the corresponding E6-DMSO value.)
- activation at 10 µM [2]: 103%
- WST1 [3]: +
